These are literature values, as cited in patent US20090275559A1, “Chronotherapeutic formulations of modified-release calcium channel blocker anti-hypertensive drugs in combination with other anti-hypertensive drugs for 24-hour optimal treatment of hypertension, nocturnal hypertension, and/or hypertension with angina” (Blue Note Pharmaceuticals, Inc., priority 2008, published 2009).

For data set [1] the following is noted: low pHs (0.1 N HCl).
For data set [2] the following is noted: extensive first-pass metabolism in the liver.

For the molecule `CCCCC1=NC2(CCCC2)C(=O)N1Cc1ccc(-c2ccccc2-c2nnn[nH]2)cc1` [Irbesartan], in data set [1], the water solubility result is “low”. For the molecule `COc1ccc([C@@H]2Sc3ccccc3N(CCN(C)C)C(=O)[C@@H]2OC(C)=O)cc1` [diltiazem], in data set [2], the plasma half-life is 2 to 6 h.
